Common to all, as to type: cell-based
The target in assay [1] is T1, Protein cereblon/Peptidyl-prolyl cis-trans isomerase FKBP1A (Homo sapiens, UniProt P62942+Q96SW2). As to the kind of experiment: Protac activity at CRBN/FKBP12 in human Jurkat cells assessed as induction of FKBP12 protein degradation incubated for 12 hrs by immunoblot method.
Target sequence in this assay (P62942 whole entry): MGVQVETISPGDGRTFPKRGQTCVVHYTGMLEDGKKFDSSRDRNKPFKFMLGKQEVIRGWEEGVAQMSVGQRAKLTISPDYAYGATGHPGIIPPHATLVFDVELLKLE
Target sequence in this assay (Q96SW2 whole entry): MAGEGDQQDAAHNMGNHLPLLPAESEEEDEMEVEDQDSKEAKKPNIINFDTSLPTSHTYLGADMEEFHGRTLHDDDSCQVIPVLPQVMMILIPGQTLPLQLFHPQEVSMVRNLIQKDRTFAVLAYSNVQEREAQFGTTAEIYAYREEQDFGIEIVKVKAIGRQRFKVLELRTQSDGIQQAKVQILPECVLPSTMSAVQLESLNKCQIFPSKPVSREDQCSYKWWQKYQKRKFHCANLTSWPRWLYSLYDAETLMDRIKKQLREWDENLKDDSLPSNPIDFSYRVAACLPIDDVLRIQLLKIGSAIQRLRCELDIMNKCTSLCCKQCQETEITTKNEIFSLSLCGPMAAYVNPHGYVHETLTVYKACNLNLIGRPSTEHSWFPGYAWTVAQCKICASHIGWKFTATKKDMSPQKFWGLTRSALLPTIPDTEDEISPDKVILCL
Assay [2] has as its target T1, Protein cereblon/Peptidyl-prolyl cis-trans isomerase FKBP1A. The assay can be described thus: Protac activity at CRBN/FKBP12 in human Jurkat cells assessed as induction of FKBP12 protein degradation up to 1000 nM incubated for 12 hrs by immunoblot method relative to control. For orientation: In western blotting, separated proteins are transferred to a membrane and probed.
Target sequence in this assay (P62942 2-108 limits assumed): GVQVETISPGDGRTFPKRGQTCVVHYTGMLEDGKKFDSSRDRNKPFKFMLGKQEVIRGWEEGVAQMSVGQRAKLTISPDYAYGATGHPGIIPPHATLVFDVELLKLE
Target sequence in this assay (Q96SW2 whole entry partner): as the sequence (Q96SW2 whole entry) above

Assay [3] has as its target T2, von Hippel-Lindau disease tumor suppressor/Tyrosine-protein kinase ABL1 (Homo sapiens, UniProt P00519+P40337). As to the kind of experiment: Protac activity at VHL/c-ABL in human K562 cells assessed as induction of c-ABL protein degradation incubated for 24 hrs by immunoblot method.
Target sequence in this assay (P00519 whole entry): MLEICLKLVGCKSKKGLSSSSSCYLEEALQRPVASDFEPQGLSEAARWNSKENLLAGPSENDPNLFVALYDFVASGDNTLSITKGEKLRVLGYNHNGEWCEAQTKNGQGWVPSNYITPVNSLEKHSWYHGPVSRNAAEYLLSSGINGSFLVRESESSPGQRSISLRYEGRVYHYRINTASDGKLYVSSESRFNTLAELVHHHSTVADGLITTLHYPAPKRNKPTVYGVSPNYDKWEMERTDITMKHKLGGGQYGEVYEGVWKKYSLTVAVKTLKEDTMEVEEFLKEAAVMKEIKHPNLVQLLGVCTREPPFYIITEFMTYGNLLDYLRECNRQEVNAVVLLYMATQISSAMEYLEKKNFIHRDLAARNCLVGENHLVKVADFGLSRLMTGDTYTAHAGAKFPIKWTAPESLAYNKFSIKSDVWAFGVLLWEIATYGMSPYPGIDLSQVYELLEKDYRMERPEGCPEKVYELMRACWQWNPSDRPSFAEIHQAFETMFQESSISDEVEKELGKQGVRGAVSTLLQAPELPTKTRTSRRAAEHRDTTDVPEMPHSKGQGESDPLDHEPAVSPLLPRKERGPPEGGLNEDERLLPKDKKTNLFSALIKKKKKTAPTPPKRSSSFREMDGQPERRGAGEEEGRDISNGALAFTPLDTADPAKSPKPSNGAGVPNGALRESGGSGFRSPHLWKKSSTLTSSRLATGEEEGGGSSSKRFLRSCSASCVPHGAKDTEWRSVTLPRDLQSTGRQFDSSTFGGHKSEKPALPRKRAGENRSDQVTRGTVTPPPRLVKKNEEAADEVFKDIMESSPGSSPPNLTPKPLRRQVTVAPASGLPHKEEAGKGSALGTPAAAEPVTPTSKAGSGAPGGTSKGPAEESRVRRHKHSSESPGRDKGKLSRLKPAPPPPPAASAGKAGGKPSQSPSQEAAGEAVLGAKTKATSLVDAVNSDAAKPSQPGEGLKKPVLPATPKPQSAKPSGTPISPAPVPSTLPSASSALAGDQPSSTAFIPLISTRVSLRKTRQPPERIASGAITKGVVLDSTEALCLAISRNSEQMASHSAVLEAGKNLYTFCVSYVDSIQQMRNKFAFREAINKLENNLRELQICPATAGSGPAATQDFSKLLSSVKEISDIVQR
Target sequence in this assay (P40337 whole entry): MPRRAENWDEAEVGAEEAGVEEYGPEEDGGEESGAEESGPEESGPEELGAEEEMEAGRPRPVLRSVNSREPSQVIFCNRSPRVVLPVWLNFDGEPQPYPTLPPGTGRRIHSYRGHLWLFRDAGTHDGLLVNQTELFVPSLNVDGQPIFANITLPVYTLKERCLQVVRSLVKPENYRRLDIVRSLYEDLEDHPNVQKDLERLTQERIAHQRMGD
Assay [4] deals with T2, von Hippel-Lindau disease tumor suppressor/Tyrosine-protein kinase ABL1. The assay can be described thus: Protac activity at VHL/c-ABL in human K562 cells assessed as induction of c-ABL protein degradation at 1 uM incubated for 24 hrs by immunoblot method relative to control.
Target sequence in this assay (P00519 whole entry, looked up): as the sequence (P00519 whole entry) above
Target sequence in this assay (P40337 whole entry, looked up): as the sequence (P40337 whole entry) above

A value given as a limit tells only on which side of the number the result lay.

Take `CO[C@H]1C[C@@H]2CC[C@@H](C)[C@@](O)(O2)C(=O)C(=O)N2CCCC[C@H]2C(=O)O[C@H]([C@H](C)C[C@@H]2CC[C@@H](OCCOCc3cn(CCOCCOCCNc4cccc5c4C(=O)N(C4CCC(=O)NC4=O)C5=O)nn3)[C@H](OC)C2)CC(=O)[C@H](C)/C=C(\C)[C@@H](O)[C@@H](OC)C(=O)[C@H](C)C[C@H](C)/C=C/C=C/C=C/1C` (some centres undefined): the DC50 (in general, the midpoint of the concentration-degradation curve) in assay [1] was 0.3 nM. Also, the Emax (in general, the maximal effect, on the per cent scale that the assay sets) in assay [2] is more than 95%.

Consider `Cc1nc(Nc2ncc(C(=O)Nc3c(C)cccc3Cl)s2)cc(N2CCN(CCCCCCOCCOCCOCCCCCC(=O)N[C@H](C(=O)N3C[C@H](O)C[C@H]3C(=O)NCc3ccc(-c4scnc4C)cc3)C(C)(C)C)CC2)n1`, for which, in assay [3], the DC50 was 1000 nM. Besides, the Emax in assay [4] was more than 65%.

Source of the values: ChEMBL document CHEMBL4387721, “Proteolysis targeting chimeras (PROTACs) in 'beyond rule-of-five' chemical space: Recent progress and future challenges” (Bioorg Med Chem Lett, 2019).
